Numbers after ± are expanded uncertainties.
Legend:
[1] = Liquid, Vibrating tube method
[2] = refractive index (Na D-line) (dimensionless); conditions: 298.15 K; 101.33 kPa; Liquid; Standard Abbe refractometry
[3] = xn = mol fraction of the nth substance listed; conditions: 313.15 K, Fluid (supercritical or subcritical phases), Vibrating tube method

CCCCO [butan-1-ol]
[1]
Conditions | mass density [kg/m3]
298.15 K, 101.33 kPa | 805.8 ± 0.2
313.15 K, 1000 kPa | 794.9 ± 0.2
313.15 K, 2000 kPa | 795.6 ± 0.2
313.15 K, 3000 kPa | 796.3 ± 0.2
313.15 K, 4000 kPa | 797 ± 0.2
313.15 K, 5000 kPa | 797.6 ± 0.2
313.15 K, 6000 kPa | 798.3 ± 0.3
313.15 K, 7000 kPa | 798.9 ± 0.3
313.15 K, 8000 kPa | 799.6 ± 0.3
313.15 K, 9000 kPa | 800.2 ± 0.3
313.15 K, 10000 kPa | 800.9 ± 0.3

Conditions | refractive index
[2] | 1.3973 ± 0.0028

CCCCO [butan-1-ol] + O=C=O
[3]
Conditions | mass density [kg/m3]
1000 kPa, x2 = 0 | 794.9 ± 0.2
2000 kPa, x2 = 0 | 795.6 ± 0.2
2000 kPa, x2 = 0.103 | 802.2 ± 0.3
3000 kPa, x2 = 0 | 796.3 ± 0.2
3000 kPa, x2 = 0.103 | 803 ± 0.3
4000 kPa, x2 = 0 | 797 ± 0.2
4000 kPa, x2 = 0.103 | 803.8 ± 0.3
4000 kPa, x2 = 0.204 | 810.6 ± 0.3
5000 kPa, x2 = 0 | 797.6 ± 0.2
5000 kPa, x2 = 0.103 | 804.6 ± 0.3
5000 kPa, x2 = 0.204 | 811.6 ± 0.3
5000 kPa, x2 = 0.3 | 817 ± 0.3
6000 kPa, x2 = 0 | 798.3 ± 0.3
6000 kPa, x2 = 0.103 | 805.4 ± 0.3
6000 kPa, x2 = 0.204 | 812.4 ± 0.3
6000 kPa, x2 = 0.3 | 818.1 ± 0.3
7000 kPa, x2 = 0 | 798.9 ± 0.3
7000 kPa, x2 = 0.103 | 806.2 ± 0.3
7000 kPa, x2 = 0.204 | 813.4 ± 0.3
7000 kPa, x2 = 0.3 | 819.1 ± 0.3
7000 kPa, x2 = 0.404 | 825.1 ± 0.3
7000 kPa, x2 = 0.503 | 829.1 ± 0.3
8000 kPa, x2 = 0 | 799.6 ± 0.3
8000 kPa, x2 = 0.103 | 806.9 ± 0.3
8000 kPa, x2 = 0.204 | 814.3 ± 0.3
8000 kPa, x2 = 0.3 | 820.2 ± 0.3
8000 kPa, x2 = 0.404 | 826.5 ± 0.3
8000 kPa, x2 = 0.503 | 830.9 ± 0.3
8000 kPa, x2 = 0.6 | 830.9 ± 0.3
8000 kPa, x2 = 0.703 | 824.9 ± 3
9000 kPa, x2 = 0 | 800.2 ± 0.3
9000 kPa, x2 = 0.103 | 807.7 ± 0.3
9000 kPa, x2 = 0.204 | 815.2 ± 0.3
9000 kPa, x2 = 0.3 | 821.2 ± 0.3
9000 kPa, x2 = 0.404 | 827.8 ± 0.3
9000 kPa, x2 = 0.503 | 832.6 ± 0.3
9000 kPa, x2 = 0.6 | 833.4 ± 0.3
9000 kPa, x2 = 0.703 | 829.1 ± 0.3
9000 kPa, x2 = 0.802 | 810.5 ± 0.7
9000 kPa, x2 = 0.9 | 762.6 ± 1.4
9000 kPa, x2 = 0.95 | 704.5 ± 5.6
10000 kPa, x2 = 0 | 800.9 ± 0.3
10000 kPa, x2 = 0.103 | 808.4 ± 0.3
10000 kPa, x2 = 0.204 | 816.1 ± 0.3
10000 kPa, x2 = 0.3 | 822.3 ± 0.3
10000 kPa, x2 = 0.404 | 829.1 ± 0.3
10000 kPa, x2 = 0.503 | 834.3 ± 0.3
10000 kPa, x2 = 0.6 | 835.8 ± 0.3
10000 kPa, x2 = 0.703 | 833.1 ± 0.3
10000 kPa, x2 = 0.802 | 817.8 ± 0.6
10000 kPa, x2 = 0.9 | 779.1 ± 1.1
10000 kPa, x2 = 0.95 | 735.5 ± 3

— the NIST ThermoML archive (doi:10.1021/je100788g)
